Reference: US7576094B2, “Spiro derivatives as lipoxygenase inhibitors” (Eli Lilly and Company, priority 2004, dated 2009)

Key:
[1] = molecular target: T1, human recombinant 5-Lipoxygenase (Homo sapiens, UniProt P09917); assay: 5-Lipoxygenase Enzyme Assay; format: biochemical; conditions: 70 μM arachidonic acid, 10 minute incubation at room temperature, FOX reagent, absorbance at 620 nm; read-out: inhibition of 5-Lipoxygenase with an IC50
T1 sequence (P09917 1-674): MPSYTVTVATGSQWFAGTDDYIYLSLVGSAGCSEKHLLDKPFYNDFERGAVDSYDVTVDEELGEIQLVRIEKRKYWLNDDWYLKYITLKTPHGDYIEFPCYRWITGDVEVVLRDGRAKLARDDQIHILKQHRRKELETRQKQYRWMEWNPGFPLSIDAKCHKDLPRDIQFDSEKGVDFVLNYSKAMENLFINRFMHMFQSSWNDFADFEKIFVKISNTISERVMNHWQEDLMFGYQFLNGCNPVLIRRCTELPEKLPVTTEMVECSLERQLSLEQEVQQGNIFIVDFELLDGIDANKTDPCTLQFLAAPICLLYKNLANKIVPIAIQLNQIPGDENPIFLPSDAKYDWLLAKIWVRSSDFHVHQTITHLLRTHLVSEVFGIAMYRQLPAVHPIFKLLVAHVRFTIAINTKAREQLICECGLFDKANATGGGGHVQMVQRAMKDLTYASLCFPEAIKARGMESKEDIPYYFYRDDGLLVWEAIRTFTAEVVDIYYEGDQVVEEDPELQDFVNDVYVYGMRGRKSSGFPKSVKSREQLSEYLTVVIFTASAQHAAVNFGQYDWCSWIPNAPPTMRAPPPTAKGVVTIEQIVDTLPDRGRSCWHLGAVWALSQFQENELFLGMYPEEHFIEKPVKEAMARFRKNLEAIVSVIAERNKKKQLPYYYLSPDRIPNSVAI
How it was run: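 Recombinant human 5-LOX in 50 mM Tris-HCl pH 7.4 was preincubated with compound, then 70 μM arachidonic acid was added for 10 min at room temperature. Hydroperoxide was read by FOX reagent (ferric xylenol orange, 1 h complex formation) as absorbance at 620 nm. Five concentrations in triplicate were tested, starting at 10 μM.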

[2] = tested on: LTB4 production in human whole blood; assay: Inhibition of LTB4 Production in Blood; format: cell-based; conditions: 1 h, 20 μM A23187, 60 minutes at 37° C., LTB4 in plasma by ELISA, read-out: protection against LTB4 at an EC50
How it was run: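 Citrated human whole blood preincubated 15 min at 37 °C with compound (top final 30 μM, 1:3 dilutions, quadruplicate), then stimulated with 20 μM A23187 for 60 min at 37 °C. Plasma LTB4 quantified by ELISA; IC50 from percent inhibition versus vehicle.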

| Compound | IC50 [1] [nM] | EC50 [2] [nM] |
| --- | --- | --- |
| Cc1c(C)c2c(c(C)c1O)C1(CCC1)CC(C)(C)S2 [2′,2′,5′,7′,8′-pentamethyl-2′,3′-dihydrospiro[cyclobutane-1,4′-thiochromen]-6′-ol] | < 300 | < 10000 |
| COC(C)C1=Cc2c(C)c(O)c(C)c(C)c2OC12CCC2 (stereo not drawn) [3-(1-methoxyethyl)-5,7,8-trimethylspiro[chromene-2,1′-cyclobutan]-6-ol] | < 300 | < 10000 |
| CCONCC1=Cc2c(cc(C)c(O)c2C)OC12CCC2 [3-[(ethoxyamino)methyl]-5,7-dimethylspiro[chromene-2,1′-cyclobutan]-6-ol] | < 300 | < 10000 |
| CCONC1CC2(CCC2)Sc2c(C)c(C)c(O)c(C)c21 (stereo not drawn) [4′-(ethoxyamino)-5′,7′,8′-trimethyl-3′,4′-dihydrospiro[cyclobutane-1,2′-thiochromen]-6′-ol] | < 300 | < 10000 |
| CCONC1CC2(CCC2)Sc2cc(C)c(O)c(C)c21 (stereo not drawn) [4′-(ethoxyamino)-5′,7′-dimethyl-3′,4′-dihydrospiro[cyclobutane-1,2′-thiochromen]-6′-ol] | < 300 | < 10000 |
| CONC1CC2(CCC2)Sc2c(C)c(C)c(O)c(C)c21 (stereo not drawn) [4′-(methoxyamino)-5′,7′,8′-trimethyl-3′,4′-dihydrospiro[cyclobutane-1,2′-thiochromen]-6′-ol] | < 300 | < 10000 |
| CONC1CC2(CCC2)Sc2cc(C)c(O)c(C)c21 (stereo not drawn) [4′-(methoxyamino)-5′,7′-dimethyl-3′,4′-dihydrospiro[cyclobutane-1,2′-thiochromen]-6′-ol] | < 300 | < 10000 |
| Cc1c(C)c2c(c(C)c1O)CCC1(CC1)O2 [5,7,8-trimethyl-3,4-dihydrospiro[chromene-2,1′-cyclopropan]-6-ol] | < 300 | < 10000 |
| Cc1cc2c(c(C)c1O)CCC1(CCC1)O2 [5,7-dimethyl-3,4-dihydrospiro[chromene-2,1′-cyclobutan]-6-ol] | < 300 | < 10000 |
| Cc1cc2c(c(C)c1O)CC1(CCC1)CO2 [5,7-dimethylspiro[chroman-3,1′-cyclobutan]-6-ol] | < 300 | < 10000 |
| Cc1cc2c(c(C)c1O)C=CC1(CCC1)O2 [5,7-dimethylspiro[chromene-2,1′-cyclobutan]-6-ol] | < 300 | < 10000 |
| Cc1c(C)c2c(c(Cl)c1O)CCC1(CCC1)O2 [5-chloro-7,8-dimethyl-3,4-dihydrospiro[chromene-2,1′-cyclobutan]-6-ol] | < 300 | – |
| Cc1c(C)c2c(c(C)c1O)C1(CCC1)CCS2 [5′,7′,8′-trimethyl-2′,3′-dihydrospiro[cyclobutane, 1,4′-thiochromen]-6′-ol] | < 300 | – |
| CCO/N=C/C1=Cc2c(cc(C)c(O)c2C)OC12CCC2 [6-hydroxy-5,7-dimethylspiro[chromene-2,1′-cyclobutane]-3-carbaldehyde O-ethyloxime] | < 300 | < 10000 |
| CO/N=C1\CC2(CCC2)Sc2c(C)c(C)c(O)c(C)c21 [6′-hydroxy-5′,7′,8′-trimethylspiro[cyclobutane-1,2′-thiochroman]-4′(3′H)-one O-methyloxime] | < 300 | < 10000 |
| Cc1c(O)cc2c(c1C)OC1(CCC1)CC2 [7,8-dimethyl-3,4-dihydrospiro[chromene-2,1′-cyclobutan]-6-ol] | < 300 | < 10000 |
| CC(C)(C)c1cc2c(cc1O)CCC1(CCC1)O2 [7-tert-butyl-3,4-dihydrospiro[chromene-2,1′-cyclobutan]-6-ol] | < 300 | < 10000 |
| Cc1c(O)c(C(C)(C)C)cc2c1CCC1(CCC1)O2 [7-tert-butyl-5-methyl-3,4-dihydrospiro[chromene-2,1′-cyclobutan]-6-ol] | < 300 | < 10000 |
| CCc1cc2c(c(CC)c1O)CC(CSCC(=O)OC)C1(CCC1)O2 (stereo not drawn) [methyl 2-((5,7-diethyl-6-hydroxyspiro[chroman-2,1′-cyclobutane]-3-yl)methylthio)acetate] | < 300 | < 10000 |
